Series [1] is described as follows: Phase 1a single-dose study in humans: safety. The series is classed as in vivo, human. As for the experimental part:
(§1) A first-in-human Phase 1a randomized, double-blind, placebo-controlled, single-dose study, was conducted in 3 stages: In Stage 1, four sequential cohorts of 8 subjects each were randomly assigned to receive progressively higher single oral administrations of Compound 2 at doses of 50, 100, 200, and 300 mg (n=6 per cohort; 3 males and 3 females) or placebo (n=2 per cohort; 1 male and 1 female).
(§2) The primary endpoint of safety was assessed by monitoring adverse events (AEs), laboratory abnormalities, and cardiac findings (ECG). Secondary endpoints included evaluation of the PK parameters of area under the plasma concentration-time curve (AUC), maximum plasma concentration (Cmax), time of maximum concentration (Tmax), apparent volume of distribution (Vd/F), terminal elimination half-life (t1/2), terminal elimination rate constant (λz), and apparent clearance (Cl/F) as well as the PD parameter of BTK inhibition in whole blood.

The nature of another series: Single-dose PK in dog. The format is in vivo, male beagle dogs. The settings on record: beagle, plasma. As for the experimental part:
A series of single-dose PK studies were conducted in rat, dog, and monkey to investigate the plasma PK of Compound 2 following single oral and single intravenous (IV) administration of Compound 2.
A study was conducted to assess the PK of Compound 2 formulated as a suspension or as a solid in capsule. […] Three different dogs were used for each dose level. […] Inter-animal variability in Compound 2 free base plasma systemic exposure was observed after IV and oral administration irrespective of formulation.

Series [2] in a line: Phase 1a single-dose study in humans, Stage 1: pharmacokinetics. The format is in vivo, human. The conditions noted are these: for Cmax / Vd/F / AUC(0-t) / Tmax / half-life: both sexes, human, plasma; for AUC(0-t): read-out: AUC0-24. As for the experimental part: as §1, §2
Compound 2 is a succinate salt. Plasma concentrations of the free base (Compound 1) were measured and used for estimation of PK parameters and elaboration of concentration/PD relationships.

The subject of a further series is primary CLL B cells. The series is described as follows: Viability of primary patient CLL cells (Annexin V and propidium iodide flow cytometry). The series is classed as cell-based. The conditions noted are these: Homo sapiens, B-cell, 48 hours, read-out: viability, that of the untreated condition. The method, then:
Methods: Primary CLL B cells were isolated from the whole blood of consented patients by FICOLL density centrifugation and rosette-sep negative selection. Annexin V and propidium iodide flow cytometry was used to measure patient CLL cell viability and 7AAD was used to measure viability in stromal co-culture. CD40 and CD86 expression was evaluated via flow cytometry subsequent to sustained 3.2 μM CpG stimulation. BCR signaling in primary CLL cells was investigated by immunoblot succeeding 1 hour treatment and following 1 hour or 24 hours of incubation with Compound 1 in XLA cell lines. MTS values were read after 24 hours of drug incubation. ITK inhibition was investigated via immunoblot after stimulation with anti-CD3 and anti-CD28 and incubation with Compound 1 for 1 hour. Compound 1 was used at a concentration of 1 μM in preclinical studies unless otherwise noted.
For orientation: Flow cytometry measures light scatter and fluorescence of single cells or particles in a stream.

The target in the next series is T1, ITK (Homo sapiens, UniProt Q08881).
T1 sequence (Q08881 1-620): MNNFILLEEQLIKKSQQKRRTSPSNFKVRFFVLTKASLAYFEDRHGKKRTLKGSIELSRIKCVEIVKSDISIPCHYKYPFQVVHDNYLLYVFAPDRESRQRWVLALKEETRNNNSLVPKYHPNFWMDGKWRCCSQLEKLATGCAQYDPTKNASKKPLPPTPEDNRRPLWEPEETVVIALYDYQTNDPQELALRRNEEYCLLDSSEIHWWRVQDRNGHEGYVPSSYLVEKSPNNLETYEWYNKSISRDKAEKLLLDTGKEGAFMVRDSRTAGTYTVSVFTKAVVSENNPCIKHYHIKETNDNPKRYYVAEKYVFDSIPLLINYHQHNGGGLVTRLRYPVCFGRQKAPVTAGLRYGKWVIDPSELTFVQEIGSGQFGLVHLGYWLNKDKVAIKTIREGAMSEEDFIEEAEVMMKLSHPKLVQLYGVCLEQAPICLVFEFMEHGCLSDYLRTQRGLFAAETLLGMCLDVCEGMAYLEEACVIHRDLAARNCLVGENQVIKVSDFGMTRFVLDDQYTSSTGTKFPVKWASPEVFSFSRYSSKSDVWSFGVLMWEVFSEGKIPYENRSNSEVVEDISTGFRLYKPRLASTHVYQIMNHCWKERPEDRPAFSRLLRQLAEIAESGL
The experiment in a line: In vitro kinase assay, ITK.

The target of another series is T2, TXK (Homo sapiens, UniProt P42681).
T2 sequence (P42681 1-527): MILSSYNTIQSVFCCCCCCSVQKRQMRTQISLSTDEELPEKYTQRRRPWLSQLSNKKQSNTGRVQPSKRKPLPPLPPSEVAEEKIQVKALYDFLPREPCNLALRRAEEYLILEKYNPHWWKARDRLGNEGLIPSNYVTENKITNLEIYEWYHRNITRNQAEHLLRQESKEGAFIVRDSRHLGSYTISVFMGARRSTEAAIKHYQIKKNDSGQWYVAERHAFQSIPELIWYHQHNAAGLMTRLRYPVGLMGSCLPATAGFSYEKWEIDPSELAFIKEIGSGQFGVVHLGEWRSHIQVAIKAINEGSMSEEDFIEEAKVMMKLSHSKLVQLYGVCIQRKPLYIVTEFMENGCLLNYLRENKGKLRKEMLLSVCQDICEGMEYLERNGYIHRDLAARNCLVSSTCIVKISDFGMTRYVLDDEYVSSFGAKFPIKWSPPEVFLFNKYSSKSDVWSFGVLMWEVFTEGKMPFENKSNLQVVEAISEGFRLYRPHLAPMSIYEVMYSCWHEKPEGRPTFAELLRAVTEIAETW
The experiment in a line: Kinase selectivity, TXK (Kd).

Where [3] appears, read: 1 mg/kg, IV, dose 1, 70% PEG400/H2O, free base measured.
The mark [4] stands for this setting: male, 5 mg/kg, PO, dose not given, 0.1% CMC/0.2% Tween, free base measured.
The mark [5] stands for this setting: oral, Cohort 1 (50 mg), mean (SD).
[6] abbreviates: oral, Cohort 2 (100 mg), mean (SD).
Where [7] appears, read: oral, Cohort 3 (200 mg), mean (SD).
The mark [8] stands for this setting: oral, Cohort 4 (300 mg), mean (SD).

Read-outs that look alike come from different tables or passages of the source.

For `NC(=O)[C@H]1CCN(c2ncnc(N)c2F)C[C@@H]1N1CCC[C@@H](Nc2cc(Cl)cc(C(F)(F)F)c2)C1=O` [Compound 2], in series [1] (24 subjects, single oral doses 50-300 mg, 8 subjects), the “subjects with treatment-emergent AEs (TEAEs)” value came out at 33%. Moreover, the “subjects with treatment-related TEAEs” value in series [1] (24 subjects, single oral doses 50-300 mg, six subjects) was determined as 25%. In series [1] (single oral doses), the “Grade 3 or higher AEs” value is “No Grade 3 or higher AEs were reported” and the SAEs result is given as “No SAEs were reported”. The dose-dependent toxicity result in series [1] (single oral doses 50-300 mg) was “No obvious pattern of dose-dependent toxicity was observed”. Moreover, in the series “Single-dose PK in dog” (setting [3]), the area under the curve AUC(0-inf) (in general, total exposure, with the tail of the curve extrapolated) was determined as 1080 ng·h/mL; the C0 came out at 1920 ng/mL; the half-life is 0.8 h. For the same compound, in “Single-dose PK in dog” (setting [4]), the AUC(0-inf) was found to be 3520 ng·h/mL; the highest level (Cmax) was 2970 ng/mL; the Tmax (in general, the time at which the peak concentration occurs) is 0.8 h. The bioavailability – broadly, dose-corrected exposure relative to a reference, in per cent – in the series “Single-dose PK in dog” (male, 5 mg/kg, PO, dose not given, 0.1% CMC/0.2% Tween, read-out: % F (oral bioavailability)) is 65%.
With `NC(=O)[C@H]1CCN(c2ncnc(N)c2F)C[C@@H]1N1CCC[C@@H](Nc2cc(Cl)cc(C(F)(F)F)c2)C1=O` [Compound 1, (3R,3′R,4′S)-1′-(6-amino-5-fluoropyrimidin-4-yl)-3-((3-chloro-5-(trifluoromethyl)phenyl)amino)-2-oxo-[1,3′-bipiperidine]-4′-carboxamide], the t1/2 in series [2] (50 mg (single dose), after dosing with Compound 2, mean) is 8.14 h. Also, the “dose proportionality of total exposure (AUC and Cmax)” value in series [2] (50-300 mg single oral dose) was “increased approximately proportionally with dose”. Further, the CL/F is 6139 (1250) mL/hr in series [2] (Cohort 1 (50 mg), mean (SD)); 7162 (2900) mL/hr in series [2] (Cohort 2 (100 mg), mean (SD)); 7886 (3724) mL/hr in series [2] (Cohort 3 (200 mg), mean (SD)); 7615 (1595) mL/hr in series [2] (Cohort 4 (300 mg), mean (SD)). The highest concentration (Cmax) (as a rule, the peak of the concentration-time curve) worked out at 1910 ng/mL in series [2] (oral, 50 mg (single dose), after dosing with Compound 2, mean); 3400 ng/mL in series [2] (oral, Cohort 2 (100 mg), mean (SD), N 6); 5960 ng/mL in series [2] (oral, Cohort 3 (200 mg), mean (SD), N 6); 6800 ng/mL in series [2] (oral, Cohort 4 (300 mg), mean (SD), N 6); 1910 ng/mL in series [2] (Cohort 1 (50 mg Compound 2, single oral), mean (SD), N 6). Besides, the Vd/F (as a rule, the apparent distribution volume after extravascular dosing) in series [2] (setting [5]) came out at 69.6 L; in series [2] (setting [6]) it was 72.9 L; in series [2] (setting [7]), 118 L; in series [2] (setting [8]), 177 L. For the same compound, the AUC(0-t) in series [2] (setting [5]) is 7830 ng·h/mL; in series [2] (setting [6]) it was 14500 ng·h/mL; in series [2] (setting [7]), 29900 ng·h/mL; in series [2] (setting [8]) it was 35400 ng·h/mL. For the same compound, the Tmax amounted to 1.17 h in series [2] (oral, Cohort 1 (50 mg), mean (SD), read-out: Tmax); 1.25 h in series [2] (oral, Cohort 2 (100 mg), mean (SD), read-out: Tmax); 1 h in series [2] (oral, Cohort 3 (200 mg), mean (SD), read-out: Tmax); 1.5 h in series [2] (oral, Cohort 4 (300 mg), mean (SD), read-out: Tmax); 1 h in series [2] (all dose cohorts, oral, range: 0.5-3.0, read-out: median Tmax). Moreover, the half-life in series [2] (oral, Cohort 1 (50 mg), mean (SD), read-out: t1/2 (converted)) was 8.14 h; in series [2] (oral, Cohort 2 (100 mg), mean (SD), read-out: t1/2 (converted)), 7.43 h; in series [2] (oral, Cohort 3 (200 mg), mean (SD), read-out: t1/2 (converted)), 10.5 h; in series [2] (oral, Cohort 4 (300 mg), mean (SD), read-out: t1/2 (converted)) it was 17 h; in series [2] (50-300 mg single oral dose, read-out: Mean t1/2 values across all dose cohorts) it was 7.43 to 17 h. For the same compound, in the series with primary CLL B cells (0.1 μM), the viability (in general, a read-out of living cells in per cent, often relative to untreated cells) at 0.1 µM worked out at 96.7%. The viability at 1 µM in the series on primary CLL B cells (1.0 μM) was found to be 96.1%. The viability at 10 µM in the series with primary CLL B cells (10.0 μM) is 88.1%. For the same compound, the concentration for half-maximal inhibition (IC50) (in general, the point on the concentration scale where inhibition reaches its midpoint) at ITK was determined as 24 nM. For the same compound, the Kd (usually the constant that tells how readily two partners part at equilibrium) on TXK was not below 200 nM.

Source of the values: patent US11174243B2, “Succinate forms and compositions of Bruton's tyrosine kinase inhibitors” (Sunesis Pharmaceuticals, Inc., priority 2016, dated 2021).
